Assay results: patent US20250280828A1, “FUNGICIDAL COMPOSITIONS” (SYNGENTA CROP PROTECTION AG, priority 2020, published 2025)

Test system: Phakopsora pachyrhizi
Experiment: Preventative control against Phakopsora pachyrhizi (Asian soybean rust) / soybean / leaf disc
Format: in vivo
Settings: foliar, evaluation 11 to 14 days after inoculation, read-out: Combined inhibition (observed); for inhibition at 0.4 g/ha: single active ingredient at 0.4 g/ha; for inhibition at 0.8 g/ha: single active ingredient at 0.8 g/ha
Protocol: Whole soybean plants are treated with the recited compositions of active ingredients four weeks after planting. One day after spraying application leaf discs are cut from the first trifoliate leaf. Five repetitions at each rate are conducted. The leaf discs are inoculated with Phakopsora pachyrhizi one day after treatment. Evaluation of the leaf discs is conducted 11 to 14 days after inoculation and the biological activity is derived from the relation of the treated compared to untreated, infested check plants. The rates of the active ingredients used are given in Tables 1 to 6 as g active ingredient (a.i.)/ha. Results from the tests outlined above are shown below in Tables 1 to 6. […] According to COLBY, in mathematical terms the synergism factor SF corresponds to O/E. In the agricultural practice an SF of […] indicates significant improvement over the purely complementary addition of activities (expected activity), while an SF of ≤0.9 in the practical application routine signals a loss of activity compared to the expected activity.

Compound | inhibition at 0.2 g/ha (single active ingredient at 0.2 g/ha) [%] | inhibition at 0.4 g/ha [%] | inhibition at 0.8 g/ha [%]
CCC(=O)Oc1c(OC)ccnc1C(=O)N[C@@H](C)C(=O)O[C@@H](C)[C@@H](C)c1ccccc1C [A.03, [(1S,2S)-1-methyl-2-(o-tolyl)propyl](2S)-2-[(4-methoxy-3-propanoyloxy-pyridine-2-carbonyl)amino]propanoate] | 0 | 10 | 42
CON(Cc1ccc(-c2noc(C(F)(F)F)n2)cc1)C(=O)C1CC1 [B.01, N-methoxy-N-[[4-[5-(trifluoromethyl)-1,2,4-oxadiazol-3-yl]phenyl]methyl]cyclopropanecarboxamide] |  |  | 65
COC(C)C(=O)N(Cc1ccc(-c2noc(C(F)(F)F)n2)cc1)OC (stereo not shown) [B.02, N,2-dimethoxy-N-[[4-[5-(trifluoromethyl)-1,2,4-oxadiazol-3-yl]phenyl]methyl]propanamide] |  | 64 | 
CCN(Cc1ccc(-c2noc(C(F)(F)F)n2)cc1)C(=O)C(C)C [B.03, N-ethyl-2-methyl-N-[[4-[5-(trifluoromethyl)-1,2,4-oxadiazol-3-yl]phenyl]methyl]propanamide] |  | 21 | 55
CNC(=O)N(Cc1ccc(-c2noc(C(F)(F)F)n2)cc1)OC [B.04, 1-methoxy-3-methyl-1-[[4-[5-(trifluoromethyl)-1,2,4-oxadiazol-3-yl]phenyl]methyl]urea] |  | 44 | 
CCNC(=O)N(Cc1ccc(-c2noc(C(F)(F)F)n2)cc1)OC [B.06, 3-ethyl-1-methoxy-1-[[4-[5-(trifluoromethyl)-1,2,4-oxadiazol-3-yl]phenyl]methyl]urea] |  | 22 | 
CCOC(=O)c1cnn(Cc2ccc(-c3noc(C(F)(F)F)n3)cc2)c1 [B.10, ethyl 1-[[4-[5-(trifluoromethyl)-1,2,4-oxadiazol-3-yl]phenyl]methyl]pyrazole-4-carboxylate] |  | 55 | 
